Measurements: PMC4714714 (Journal of medicinal chemistry, 2015)
Where two headings read alike, the source gives them in different places.

What was measured:
[1] = test system: KB human nasopharyngeal carcinoma cells (FRα/PCFT/RFC); experiment: Growth inhibition of KB human tumor cells; assay type: cell-based
[2] = test system: SKOV3 human ovarian tumor xenografts; experiment: In vivo efficacy trial against SKOV3 xenografts in SCID mice; conditions: folate-deficient diet; 4 28 mg/kg, 7 16 mg/kg i.v. Q4dx3
[3] = molecular target: T1, DHFR (Homo sapiens, UniProt P00374); experiment: Isolated enzyme assay DHFR; assay type: biochemical; conditions: nucleoside protection and isolated enzyme assays (not shown)
T1 sequence (P00374 1-187): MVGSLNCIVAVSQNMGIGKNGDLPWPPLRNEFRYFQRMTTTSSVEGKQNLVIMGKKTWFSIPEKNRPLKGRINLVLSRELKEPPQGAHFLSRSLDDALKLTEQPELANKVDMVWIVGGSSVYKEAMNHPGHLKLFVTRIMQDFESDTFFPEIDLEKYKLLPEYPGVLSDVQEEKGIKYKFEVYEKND

[4] = molecular target: TS (Homo sapiens, UniProt P04818); experiment: Isolated enzyme assay TS; assay type: biochemical; conditions: nucleoside protection and isolated enzyme assays (not shown)
[5] = molecular target: FRα (Homo sapiens, UniProt P15328); experiment: [3H]folic acid competition binding to FRα on RT16 CHO cells
[6] = molecular target: FRβ (Homo sapiens, UniProt P14207); experiment: [3H]folic acid competition binding to FRβ on D4 CHO cells
[7] = molecular target: T2, PCFT (Homo sapiens, UniProt Q96NT5); experiment: PCFT uptake and transport kinetics in R2/PCFT4 CHO cells; assay type: cell-based
T2 sequence (Q96NT5 1-459): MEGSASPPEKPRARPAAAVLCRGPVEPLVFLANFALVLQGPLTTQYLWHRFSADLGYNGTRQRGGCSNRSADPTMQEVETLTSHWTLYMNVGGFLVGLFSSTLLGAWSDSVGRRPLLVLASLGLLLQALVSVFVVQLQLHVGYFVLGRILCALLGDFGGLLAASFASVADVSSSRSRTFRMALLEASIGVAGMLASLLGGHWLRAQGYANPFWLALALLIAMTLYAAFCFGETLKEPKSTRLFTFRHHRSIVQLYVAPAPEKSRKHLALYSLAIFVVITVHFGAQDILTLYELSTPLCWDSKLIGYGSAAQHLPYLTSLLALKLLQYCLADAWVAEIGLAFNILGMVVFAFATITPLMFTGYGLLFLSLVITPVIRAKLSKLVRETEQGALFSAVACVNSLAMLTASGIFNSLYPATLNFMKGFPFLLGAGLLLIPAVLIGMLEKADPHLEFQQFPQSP

[8] = molecular target: T3, recombinant human GARFTase (Homo sapiens, UniProt P22102); experiment: In vitro GARFTase inhibition assay; assay type: biochemical; conditions: from Ki values
T3 sequence (P22102 810-1010 limits assumed): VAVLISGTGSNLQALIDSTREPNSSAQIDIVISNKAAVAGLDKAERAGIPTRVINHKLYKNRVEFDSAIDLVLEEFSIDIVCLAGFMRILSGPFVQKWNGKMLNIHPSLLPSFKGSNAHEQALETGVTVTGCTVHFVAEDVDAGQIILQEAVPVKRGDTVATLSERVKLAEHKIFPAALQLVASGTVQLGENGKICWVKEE

[9] = read-out: IC50 for inhibition of proliferation, KB

Chain of TS (P04818 whole entry): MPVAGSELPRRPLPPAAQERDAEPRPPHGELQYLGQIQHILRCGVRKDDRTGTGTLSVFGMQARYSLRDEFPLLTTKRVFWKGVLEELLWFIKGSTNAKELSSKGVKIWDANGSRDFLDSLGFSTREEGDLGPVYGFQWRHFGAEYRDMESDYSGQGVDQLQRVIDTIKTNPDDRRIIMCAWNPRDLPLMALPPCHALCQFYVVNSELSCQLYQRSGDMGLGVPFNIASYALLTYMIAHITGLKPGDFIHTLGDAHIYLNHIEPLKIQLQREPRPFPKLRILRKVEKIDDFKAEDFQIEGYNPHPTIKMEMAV
Chain of FRβ (P14207 17-255): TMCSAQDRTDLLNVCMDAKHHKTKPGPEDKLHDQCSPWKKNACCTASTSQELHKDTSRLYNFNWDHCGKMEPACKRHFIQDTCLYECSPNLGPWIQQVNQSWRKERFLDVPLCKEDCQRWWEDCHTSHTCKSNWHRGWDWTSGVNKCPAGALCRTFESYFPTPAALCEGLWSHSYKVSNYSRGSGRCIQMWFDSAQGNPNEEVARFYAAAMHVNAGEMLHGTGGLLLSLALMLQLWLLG
Chain of FRα (P15328 25-257): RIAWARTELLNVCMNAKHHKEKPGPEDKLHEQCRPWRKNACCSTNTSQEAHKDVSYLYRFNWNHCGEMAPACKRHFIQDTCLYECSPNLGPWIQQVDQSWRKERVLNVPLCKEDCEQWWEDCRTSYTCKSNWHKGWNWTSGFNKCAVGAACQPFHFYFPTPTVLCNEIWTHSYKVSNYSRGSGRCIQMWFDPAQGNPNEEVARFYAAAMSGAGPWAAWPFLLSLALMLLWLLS

SMILES	IC50 [1, 9] [nM]	tumor growth delay (T–C value) [2] [days]	inhibition of DHFR [3]	inhibition of TS [4]	further results
C#CCC(Cc1cnc2nc(N)nc(N)c2n1)c1ccc(C(=O)N[C@@H](CCC(=O)O)C(=O)O)cc1 (stereo partly drawn) [PDX, N-(4-{1-[(2,4-diaminopteridin-6-yl)methyl]but-3-yn-1-yl}-benzoyl)-L-glutamic acid]	0.47				IC50 ([1]; read-out: IC50 for inhibition of proliferation, KB (+FA)): 1.94 nM
Nc1nc2[nH]c(CCCc3ccc(C(=O)N[C@@H](CCC(=O)O)C(=O)O)s3)cc2c(=O)[nH]1 [compound 4]	0.26	13			
Nc1nc(N)c2c(CCCc3csc(C(=O)N[C@@H](CCC(=O)O)C(=O)O)c3)coc2n1 [compound 6, (S)-2-({4-[3-(2,4-Diamino-furo[2,3-d]pyrimidin-5-yl)-propyl]-thiophene-2 carbonyl}-amino)-pentanedioic Acid]			Neither 6 nor 8 were potent inhibitors of DHFR or TS	Neither 6 nor 8 were potent inhibitors of DHFR or TS	
Nc1nc2[nH]c(CCCc3cc(C(=O)N[C@@H](CCC(=O)O)C(=O)O)cs3)cc2c(=O)[nH]1 [compound 7, (S)-2-({5-[3-(2-Amino-4-oxo-4,7-dihydro-3H-pyrrolo[2,3-d]-pyrimidin-6-yl)-propyl]-thiophene-3-carbonyl}-amino)-pentanedioic Acid]		13			relative binding affinity to FRα, % of that for folic acid [5]: approximately 60 % of that for folic acid; relative binding affinity to FRβ, % of the affinity for folic acid [6]: 35–40 % of the affinity for folic acid; PCFT uptake of [3H]7 in excess of that for [3H]PMX ([7]; 0.5 μM, pH 5.5, 37 °C): ~ 40%; Vmax, PCFT transport, pH 5.5 ([7]; pH 5.5): 24.62 (±6.60) pmol/mg/min; Vmax, PCFT transport, pH 6.8 ([7]; pH 6.8): 3.0 (±0.3) pmol/mg/min; fold more potent as inhibitor of human GARFTase than 4 [8]: ~ 7 fold; fold more potent as inhibitor of human GARFTase than PMX [8]: > 100 fold
Nc1nc(N)c2c(CCCc3cc(C(=O)N[C@@H](CCC(=O)O)C(=O)O)cs3)coc2n1 [compound 8, (S)-2-({5-[3-(2,4-Diamino-furo[2,3-d]pyrimidin-5-yl)-propyl]-thiophene-3-carbonyl}-amino)-pentanedioic Acid]			Neither 6 nor 8 were potent inhibitors of DHFR or TS	Neither 6 nor 8 were potent inhibitors of DHFR or TS	
